# Results published in patent US20250127752A1, “REDUCED REBOUND EFFECTS IN SUBJECTS TREATED FOR OVERWEIGHT OR OBESITY” (Empros Pharma AB, priority 2021, published 2025).
# Like-named read-outs stand apart in the source and are kept apart here.
# Legend:
# [1] = Pre-dose (trough) plasma level of orlistat and acarbose at steady state, week 26; type: in vivo, human; conditions: steady state week 26, patients on active treatment
# [2] = cited from earlier work; for Additional weight loss relative to placebo: at one year, on average; for Placebo adjusted reduction of body weight: oral administration for 6 months
# [3] = oral, conventional dosage form; cited from earlier work
# [4] = cited from earlier work
# [5] = cited from earlier work; remark: listed apart in the source
smiles,measurement,setting,value
"CCCCCCCCCCC[C@@H](C[C@@H]1OC(=O)[C@H]1CCCCCC)OC(=O)[C@H](CC(C)C)NC=O [orlistat, (S)—((S)-1-((2S,3S)-3-Hexyl-4-oxooxetan-2-yl)tridecan-2-yl) 2-formamido-4-methylpentanoate]",Patients in whom low plasma levels were measured,[1],27 of 75
same,Additional weight loss relative to placebo,[2],~3%
same,Approximate relative weight loss,[2]; conventional dosage forms,2-3%
same,Placebo adjusted reduction of body weight,[2],2-3%
same,"Relative weight loss, best case scenario",[2]; versus placebo 6%,10%
same,Fraction of the dose absorbed,[3],< 3%
same,Plasma exposure,[3],< 5 ng/mL
same,"Patients complaining about GI side-effects (diarrhea, oily spotting, fecal urgency)","[4]; clinical trials, conventional dosage form",≥ 25%
same,Participants reporting faecal incontinence,[4]; similar 6-month trial,5%
same,Participants reporting faecal incontinence,[4]; trials of longer duration,approximately 18%
same,Solubility in water,[5],practically insoluble in water
same,Water solubility,[5],less than 0.001 g/ml
"C[C@H]1O[C@H](O[C@H]2[C@H](O)[C@@H](O)[C@@H](O[C@H]3[C@H](O)[C@@H](O)C(O)O[C@@H]3CO)O[C@@H]2CO)[C@H](O)[C@@H](O)[C@@H]1N[C@H]1C=C(CO)[C@@H](O)[C@H](O)[C@H]1O (stereo partly drawn) [acarbose, O-4,6-Dideoxy-4-[[(1S,4R,5S,6S)-4,5,6-trihydroxy-3-(hydroxymethyl)cyclohex-2-enyl]amino]-α-D-glucopyranosyl-(1→4)-O-α-D-gluco-pyranosyl-(1→4)-D-glucopyranose]",Patients in whom low plasma levels were measured,[1],3 of 75
same,Placebo adjusted reduction of body weight,[2],approx. 0.5%
OCCN1C[C@H](O)[C@@H](O)[C@H](O)[C@H]1CO [Miglitol],Fraction of the dose absorbed,[3],100%
C[C@H]1CNCCc2ccc(Cl)cc21 [lorcaserin],Additional weight loss relative to placebo,[2],~3%
same,Body weight decrease more than placebo,"[2]; human, in vivo",about 3.2 kg
same,"Body weight decrease more than placebo, of initial body weight","[2]; human, in vivo",about 3.2%
